Common to all, as to assay: inhibition of tumour cell growth, NCI panel, 48 h
The subject of experiment [1] is COLO 205 colon.
Experiment [2] has as its system DMS 273 small cell lung.
For experiment [3], the system named is HCC-2998 colon.
For experiment [4], the system named is HOP-92 NSCLC.
Experiment [5] deals with K-562 leukemia.
Experiment [6] relates to KM20L2 colon.
In experiment [7] the test system is LXFL 529 NSCLC.
The subject of experiment [8] is NCI/ADR-RES ovarian.
In experiment [9] the test system is SF-295 CNS.
In experiment [10] the test system is SF-539 CNS.

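Values below derive from 48-hour exposures of cells grown in 96-well plates, with endpoints linearly interpolated between the two concentrations bracketing the appropriate inhibition level. Here, GI50 denotes the concentration required for 50% inhibition of growth. TGI denotes the concentration required for complete inhibition of growth.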

Take `CCOC(CN=c1nc(N(C)C)ss1)OCC`: the TGI in experiment [1] was 7.28 µM; in experiment [2] it was greater than 67.9 µM; in experiment [3] it was greater than 100 µM; in experiment [4] it was 36 µM; in experiment [5], 11.8 µM; in experiment [6], greater than 72.5 µM. For the same compound, the TGI is 20.5 µM in experiment [7], greater than 100 µM in experiment [8], 43.8 µM in experiment [9] and 31.4 µM in experiment [10].
As to `N.N.NC(CS)C(=O)[O-].NC(CS)C(=O)[O-].[Pt+4]` (configuration not stated), the GI50 in [1], in experiment [2], in [3], in experiment [4], in experiment [5] and in [6] was greater than 50 µM each time. In addition, the GI50 in experiment [7], in experiment [9] and in [10] was greater than 50 µM each time. In addition, the TGI in experiment [1], in [2], in experiment [3], in experiment [4], in experiment [5] and in experiment [6] was greater than 50 µM in each case. Besides, the TGI in experiment [7], in experiment [9] and in experiment [10] was greater than 50 µM throughout.
On to `O=C1OC2(c3ccccc3Oc3ccccc32)c2ccccc21`, for which the TGI in experiment [1], in experiment [2], in experiment [3], in [4], in experiment [5] and in [6] was greater than 100 µM throughout. Moreover, the TGI in [7], in experiment [9] and in experiment [10] was greater than 100 µM throughout.
As to `C=C1CC[C@@H]2C(C)(C)CCC[C@@]2(C)[C@@H]1Cc1cc(O)ccc1O`, the TGI in experiment [1] stood at 31.4 µM; in experiment [2], 19.4 µM; in experiment [3], 28 µM; in experiment [4] it was 10.6 µM; in experiment [5], 16.7 µM; in experiment [6], 32.8 µM. In addition, the TGI was determined as 6.68 µM in experiment [7], 28.2 µM in experiment [9] and 3.9 µM in experiment [10].
Regarding `O=[N+]([O-])C1C2C=CC(C2)[C@H]1c1ccccc1Cl` (some centres not stated), the TGI was greater than 100 µM in experiment [1]; greater than 100 µM in experiment [2]; greater than 100 µM in [3]; greater than 75.6 µM in [4]; greater than 100 µM in [5]; greater than 100 µM in experiment [6]. The TGI in experiment [7], in [9] and in [10] was greater than 100 µM in each case.
Regarding `COC(=O)c1nc(NC#N)[nH]c(=O)c1C`, the TGI in experiment [1], in [2], in experiment [3], in experiment [4], in [5] and in [6] was greater than 100 µM each time. The TGI in experiment [7] was greater than 100 µM; in experiment [9] it was greater than 100 µM; in experiment [10], greater than 93 µM.
Consider `CCOC(=O)C1C(=O)c2ccccc2CN1Cc1ccccc1` (configuration not stated), for which the TGI in [1], in experiment [2], in experiment [3], in experiment [4], in [5] and in [6] was greater than 100 µM in each case. Moreover, the TGI in experiment [7], in experiment [9] and in experiment [10] was greater than 100 µM in each case.
For `c1ccc(N=C2c3ccccc3C3=NCCCN32)cc1`, the TGI was greater than 100 µM in [1]; greater than 100 µM in experiment [2]; greater than 100 µM in [3]; 72.2 µM in experiment [4]; greater than 100 µM in experiment [5]; greater than 100 µM in experiment [6]. The TGI in experiment [7], in [9] and in [10] was greater than 100 µM in each case.

(Values after PubChem BioAssay (NCI).)
